In patent publication US20030138785A1 (priority 2001, published 2003):

What was measured:
DHFR fusion protein = assay: MP5 competition assay (yeast three-hybrid X-gal plate assay of lacZ transcription); format: cell-based; settings: 1 μM D8M, X-gal plates, LexA/B42 chimeras of DHFR and rGR
Experimental: FIG. 7. MP5 Competition Assay. […] Columns A through H on each plate correspond to yeast strains containing different LexA- and/or B42-chimeras: A, LexA-Sec16p, B42-Sec6p. A is a direct protein-protein interaction used as a positive control. B, LexA, B42. C, LexA-eDHFR, B42-rGR. D, LexA-mDHFR, B42-rGR. E, LexA-rGR, B42-eDHFR. F, LexA-rGR, B42-mDHFR. G, LexA-eDHFR, B42. H, LexA, B42-rGR.
This competition assay was performed using D8M as the “well characterized” small molecule.

LexA-rGR and B42-DHFR = target: T1, LexA-rGR and B42-DHFR (UniProt P06536+P0ABQ4); settings: shown by WO 01/53355; cited from earlier work
T1 sequence (P06536 542-776 limits assumed): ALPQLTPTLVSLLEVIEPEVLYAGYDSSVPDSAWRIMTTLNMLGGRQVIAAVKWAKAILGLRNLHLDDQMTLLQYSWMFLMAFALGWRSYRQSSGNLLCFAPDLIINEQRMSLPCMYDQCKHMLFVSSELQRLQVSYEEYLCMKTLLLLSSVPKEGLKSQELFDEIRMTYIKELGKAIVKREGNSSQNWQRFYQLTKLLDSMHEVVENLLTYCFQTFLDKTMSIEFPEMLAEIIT
T1 sequence (P0ABQ4 1-159): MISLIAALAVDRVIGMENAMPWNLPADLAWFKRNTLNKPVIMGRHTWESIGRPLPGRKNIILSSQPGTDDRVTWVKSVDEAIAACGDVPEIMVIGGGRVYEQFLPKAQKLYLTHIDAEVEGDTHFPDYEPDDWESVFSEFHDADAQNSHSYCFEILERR

E. coli = settings: supplemented with appropriate nutrients; cited from earlier work
S. cerevisiae = settings: supplemented with appropriate nutrients; cited from earlier work
[1] = system: dihydrofolate reductase (DHFR); settings: cited from earlier work

SMILES | induction of lacZ transcription (DHFR fusion protein) | dimerization of LexA-rGR and B42-DHFR based on lacZ transcription (LexA-rGR and B42-DHFR) | growth in the presence of MTX (E. coli) | growth in the presence of MTX (S. cerevisiae) | affinity of DHFR binding [1] | affinity of DHFR inhibition [1]
C[C@@H]1C[C@H]2C3CCC4=CC(=O)C=C[C@]4(C)[C@@]3(F)[C@@H](O)C[C@]2(C)[C@@]1(O)C(=O)NCCSCCCCCCCCSCC[C@H](NC(=O)c1ccc(N(C)Cc2cnc3nc(N)nc(N)c3n2)cc1)C(=O)O (stereo partly drawn) [D8M] | induced lacZ transcription | mediate the dimerization of LexA-rGR and B42-DHFR |  |  |  | 
CN(Cc1cnc2nc(N)nc(N)c2n1)c1ccc(C(=O)N[C@@H](CCC(=O)O)C(=O)O)cc1 [MTX, methotrexate] |  |  | grow in the presence of MTX | grow in the presence of MTX | nM affinity | pM affinity
